15 molecules from ChEMBL document CHEMBL3046673, “Synthesis and herbicidal activities of novel 4-(4-(5-methyl-3-arylisoxazol-4-yl)thiazol-2-yl)piperidyl carboxamides and thiocarboxamides” (Molecules, 2009) can be followed below.

Each structure is given as a SMILES string.

Holding throughout (type): functional
Conditions in all cases: 120 h, read-out: GI

Experiment [1] has as its system Echinochloa crus-galli. The experiment can be described thus: Herbicidal activity against Echinochloa crus-galli (barnyard grass) assessed as inhibition of stalk growth at 10 mg/L using pre-emergence exposure protocol after 5 days.
The subject of experiment [2] is Echinochloa crus-galli. The experiment is described as follows: Herbicidal activity against Echinochloa crus-galli (barnyard grass) assessed as inhibition of root growth at 10 mg/L using pre-emergence exposure protocol after 5 days.
Experiment [3] relates to Echinochloa crus-galli. The experiment can be described thus: Herbicidal activity against Echinochloa crus-galli (barnyard grass) assessed as inhibition of stalk growth at 100 mg/L using pre-emergence exposure protocol after 5 days.
In experiment [4] the test system is Echinochloa crus-galli. The experiment is described as follows: Herbicidal activity against Echinochloa crus-galli (barnyard grass) assessed as inhibition of root growth at 100 mg/L using pre-emergence exposure protocol after 5 days.
For experiment [5], the system named is Brassica napus. The experiment is described as follows: Herbicidal activity against Brassica napus (oilseed rape) assessed as inhibition of stalk growth at 10 mg/L using pre-emergence exposure protocol after 5 days.
Experiment [6] relates to Brassica napus. The experiment is described as follows: Herbicidal activity against Brassica napus (oilseed rape) assessed as inhibition of root growth at 10 mg/L using pre-emergence exposure protocol after 5 days.
Experiment [7] concerns Brassica napus. The experiment is described as follows: Herbicidal activity against Brassica napus (oilseed rape) assessed as inhibition of stalk growth at 100 mg/L using pre-emergence exposure protocol after 5 days.
Experiment [8] has as its system Brassica napus. The experiment can be described thus: Herbicidal activity against Brassica napus (oilseed rape) assessed as inhibition of root growth at 100 mg/L using pre-emergence exposure protocol after 5 days.

As to `Cc1onc(-c2ccccc2F)c1-c1csc(C2CCN(C(=O)Nc3ccccc3)CC2)n1`, the inhibition of growth at 10 µg/mL came to 17.1% in the experiment on Echinochloa crus-galli [1], 56.5% in the experiment on Echinochloa crus-galli [2], 31.8% in the experiment with Brassica napus [5] and 56.2% in the experiment on Brassica napus [6]. Further, the inhibition of growth at 100 µg/mL was determined as 39% in the experiment on Echinochloa crus-galli [3], 84.8% in the experiment with Echinochloa crus-galli [4], 72.7% with Brassica napus [7] and 91.2% in the experiment with Brassica napus [8].

In the case of `CCCCNC(=O)N1CCC(c2nc(-c3c(-c4ccc(F)cc4)noc3C)cs2)CC1`, the inhibition of growth at 10 µg/mL in the experiment with Echinochloa crus-galli [1] was determined as 56.8%; in the experiment with Echinochloa crus-galli [2], 71%; with Brassica napus [5] it was 40%; with Brassica napus [6], 67.8%. Moreover, the inhibition of growth at 100 µg/mL in the experiment on Echinochloa crus-galli [3] was found to be 63.6%; in the experiment with Echinochloa crus-galli [4] it was 87.1%; in the experiment with Brassica napus [7], 70%; in the experiment on Brassica napus [8], 88.1%.

As to `Cc1onc(-c2ccc(F)cc2)c1-c1csc(C2CCN(C(=O)Nc3ccc(F)cc3)CC2)n1`, the inhibition of growth at 10 µg/mL is 50% in the experiment with Echinochloa crus-galli [1], 35.5% in the experiment with Echinochloa crus-galli [2], 6.7% with Brassica napus [5] and 35.8% with Brassica napus [6]. For the same molecule, the inhibition of growth at 100 µg/mL in the experiment on Echinochloa crus-galli [3] was found to be 52.3%; in the experiment on Echinochloa crus-galli [4], 74.2%; with Brassica napus [7], 56.7%; with Brassica napus [8] it was 76.1%.

Turning to `COc1ccc(-c2noc(C)c2-c2csc(C3CCN(C(=O)Nc4ccc(F)cc4)CC3)n2)cc1`, the inhibition of growth at 10 µg/mL with Echinochloa crus-galli [1] was 34.8%; with Echinochloa crus-galli [2], 59.1%; in the experiment on Brassica napus [5], 14.3%; in the experiment with Brassica napus [6], 46.9%. Moreover, the inhibition of growth at 100 µg/mL with Echinochloa crus-galli [3] worked out at 37%; in the experiment with Echinochloa crus-galli [4] it was 86.4%; with Brassica napus [7] it was 53.6%; with Brassica napus [8] it was 81.3%.

As for `Cc1onc(-c2ccccc2F)c1-c1csc(C2CCN(C(=O)Nc3ccc(F)cc3)CC2)n1`, the inhibition of growth at 10 µg/mL in the experiment with Echinochloa crus-galli [1] amounted to 56.8%; with Echinochloa crus-galli [2] it was 64.5%; in the experiment with Brassica napus [5] it was 16.7%; with Brassica napus [6], 52.3%. Moreover, the inhibition of growth at 100 µg/mL with Echinochloa crus-galli [3] is 63.6%; in the experiment on Echinochloa crus-galli [4], 80.6%; in the experiment with Brassica napus [7], 66.7%; in the experiment with Brassica napus [8] it was 96.6%.

As to `Cc1onc(-c2ccccc2)c1-c1csc(C2CCN(C(=O)Nc3ccc(F)cc3)CC2)n1`, the inhibition of growth at 10 µg/mL in the experiment on Echinochloa crus-galli [1] came out at 0%; with Echinochloa crus-galli [2], 54.8%; in the experiment with Brassica napus [5], 0%; with Brassica napus [6], 66.3%. For the same molecule, the inhibition of growth at 100 µg/mL with Echinochloa crus-galli [3] came to 17.7%; in the experiment with Echinochloa crus-galli [4], 87.1%; in the experiment with Brassica napus [7] it was 31.8%; in the experiment with Brassica napus [8] it was 85.4%.

In the case of `Cc1onc(-c2ccc(F)cc2)c1-c1csc(C2CCN(C(=O)NC(C)C)CC2)n1`, the inhibition of growth at 10 µg/mL with Echinochloa crus-galli [1] was 47.7%; with Echinochloa crus-galli [2], 54.8%; in the experiment on Brassica napus [5], 46.7%; in the experiment with Brassica napus [6], 68.8%. In addition, the inhibition of growth at 100 µg/mL in the experiment on Echinochloa crus-galli [3] came to 63.6%; in the experiment with Echinochloa crus-galli [4], 83.9%; in the experiment on Brassica napus [7], 66.7%; in the experiment on Brassica napus [8], 87.2%.

In the case of `COc1ccc(-c2noc(C)c2-c2csc(C3CCN(C(=O)Nc4ccccc4)CC3)n2)cc1`, the inhibition of growth at 10 µg/mL with Echinochloa crus-galli [1] was -22%; in the experiment on Echinochloa crus-galli [2], 45.7%; in the experiment on Brassica napus [5], -22.7%; in the experiment on Brassica napus [6], 20.2%. Besides, the inhibition of growth at 100 µg/mL with Echinochloa crus-galli [3] was 24.6%; in the experiment on Echinochloa crus-galli [4], 76.1%; in the experiment on Brassica napus [7], 4.5%; in the experiment on Brassica napus [8], 43.8%.

For `Cc1onc(-c2ccccc2F)c1-c1csc(C2CCN(C(=S)Nc3ccccc3)CC2)n1`, the inhibition of growth at 10 µg/mL amounted to 45.5% in the experiment with Echinochloa crus-galli [1], 48.4% in the experiment with Echinochloa crus-galli [2], 43.3% with Brassica napus [5] and 64.2% with Brassica napus [6]. For the same molecule, the inhibition of growth at 100 µg/mL with Echinochloa crus-galli [3] was found to be 59.1%; in the experiment on Echinochloa crus-galli [4], 83.9%; in the experiment with Brassica napus [7], 60%; in the experiment with Brassica napus [8] it was 92.7%.

For `Cc1onc(-c2ccc(F)cc2)c1-c1csc(C2CCN(C(=O)Nc3ccccc3)CC2)n1`, the inhibition of growth at 10 µg/mL with Echinochloa crus-galli [1] was 39.1%; in the experiment with Echinochloa crus-galli [2], 65.9%; in the experiment with Brassica napus [5] it was 25%; in the experiment on Brassica napus [6], 46.9%. The inhibition of growth at 100 µg/mL in the experiment on Echinochloa crus-galli [3] turned out to be 56.5%; in the experiment with Echinochloa crus-galli [4], 95.5%; with Brassica napus [7], 53.6%; in the experiment on Brassica napus [8], 83.3%.

With `CCCCNC(=O)N1CCC(c2nc(-c3c(-c4ccccc4F)noc3C)cs2)CC1`, the inhibition of growth at 10 µg/mL was found to be 61.4% in the experiment with Echinochloa crus-galli [1], 58.1% in the experiment with Echinochloa crus-galli [2], 43.3% in the experiment on Brassica napus [5] and 61.5% with Brassica napus [6]. The inhibition of growth at 100 µg/mL was 63.6% in the experiment on Echinochloa crus-galli [3], 90.3% with Echinochloa crus-galli [4], 70% in the experiment with Brassica napus [7] and 86.2% with Brassica napus [8].

Take `Cc1onc(-c2ccccc2F)c1-c1csc(C2CCN(C(=O)NC(C)C)CC2)n1`: the inhibition of growth at 10 µg/mL came to 22% with Echinochloa crus-galli [1], 56.5% with Echinochloa crus-galli [2], 22.7% in the experiment with Brassica napus [5] and 68.5% in the experiment on Brassica napus [6]. For the same molecule, the inhibition of growth at 100 µg/mL with Echinochloa crus-galli [3] worked out at 14.6%; in the experiment with Echinochloa crus-galli [4], 73.9%; in the experiment with Brassica napus [7] it was 54.5%; with Brassica napus [8] it was 83.1%.

On to `Cc1onc(-c2ccccc2)c1-c1csc(C2CCN(C(=O)Nc3ccccc3)CC2)n1`, for which the inhibition of growth at 10 µg/mL turned out to be 52.3% in the experiment with Echinochloa crus-galli [1], 52% with Echinochloa crus-galli [2], 30% in the experiment with Brassica napus [5] and 51.4% in the experiment on Brassica napus [6]. Also, the inhibition of growth at 100 µg/mL was 63.6% in the experiment with Echinochloa crus-galli [3], 78.3% in the experiment with Echinochloa crus-galli [4], 70% in the experiment with Brassica napus [7] and 80.4% in the experiment on Brassica napus [8].

`Cc1onc(-c2ccc(Cl)cc2Cl)c1-c1csc(C2CCN(C(=O)Nc3ccc(F)cc3)CC2)n1`: the inhibition of growth at 10 µg/mL with Echinochloa crus-galli [1] came to 45.5%; with Echinochloa crus-galli [2], 32.3%; in the experiment with Brassica napus [5], 20.2%; with Brassica napus [6] it was 34.9%. The inhibition of growth at 100 µg/mL was determined as 63.6% with Echinochloa crus-galli [3], 83.8% in the experiment with Echinochloa crus-galli [4], 70% with Brassica napus [7] and 90.3% with Brassica napus [8].

Take `Cc1onc(-c2ccc(F)cc2)c1-c1csc(C2CCN(C(=S)Nc3ccccc3)CC2)n1`: the inhibition of growth at 10 µg/mL in the experiment with Echinochloa crus-galli [1] came to 43.2%; in the experiment on Echinochloa crus-galli [2], 48.4%; in the experiment with Brassica napus [5], 6.7%; in the experiment on Brassica napus [6], 54.1%. For the same molecule, the inhibition of growth at 100 µg/mL with Echinochloa crus-galli [3] is 63.6%; in the experiment on Echinochloa crus-galli [4], 87.1%; with Brassica napus [7], 53.3%; in the experiment with Brassica napus [8] it was 90.1%.
